Assay results reported in patent publication US20230158025A1 (UNIVERSITY OF UTAH RESEARCH FOUNDATION, priority 2020, published 2023).
pIC50: −log10 of the molar value. Where two headings read alike, the source gives them in different places.

Legend:
[1] = aqueous kinetic solubility
[2] = rat microsomal stability (RLM)
recombinant human GALK1 = recombinant human GALK1 (Homo sapiens, UniProt P51570); experiment: hGALK1 biochemical activity assay (Kinase-Glo Plus, ATP depletion)
In short: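 Recombinant human or mouse GALK1 (5 nM, with 100 μM galactose, in the added enzyme solution) was run with ATP (35 μM in the substrate solution) in HEPES pH 8.0 buffer. Compounds were tested at 11 1/3-step concentrations from 57.4 μM to 0.97 nM. After 1 h at room temperature, remaining ATP was read by Kinase-Glo Plus luminescence.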

recombinant mouse GALK1 = recombinant mouse GALK1 (Mus musculus, UniProt Q9R0N0); experiment: mGALK1 biochemical activity assay (Kinase-Glo Plus, ATP depletion)
Sequence of recombinant mouse GALK1 (Q9R0N0 whole entry): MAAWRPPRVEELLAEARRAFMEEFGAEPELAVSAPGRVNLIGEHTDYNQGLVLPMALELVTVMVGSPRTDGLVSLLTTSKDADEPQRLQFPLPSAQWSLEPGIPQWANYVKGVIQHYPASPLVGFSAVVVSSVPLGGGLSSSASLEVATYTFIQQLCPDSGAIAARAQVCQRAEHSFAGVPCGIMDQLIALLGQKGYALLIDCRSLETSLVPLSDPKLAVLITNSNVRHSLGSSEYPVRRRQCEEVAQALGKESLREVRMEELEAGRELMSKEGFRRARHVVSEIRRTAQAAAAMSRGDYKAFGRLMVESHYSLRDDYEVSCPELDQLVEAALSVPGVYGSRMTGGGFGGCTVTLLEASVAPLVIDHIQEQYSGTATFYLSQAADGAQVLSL
In short: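 Recombinant GALK1 (5 nM) with 100 μM galactose; GALK1 turnover read as ATP depletion by Kinase-Glo Plus luminescence. Reaction ran 1 h at room temperature before detection reagent was added.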

[3] = Tables 2-15, 35 μM ATP, 100 μM galactose, 1 h, bracketed figure after some values (e.g. −1.2) is undefined and not reported, read-out: hGALK IC50
[4] = recombinant human GALK1, Kinase-Glo Plus ATP depletion, read-out: hGALK
[5] = Tables 2-15, 35 μM ATP, 100 μM galactose, 1 h, bracketed figure after some values is undefined and not reported, read-out: mGALK IC50
[6] = recombinant mouse GALK1, Kinase-Glo Plus ATP depletion, read-out: mGALK
[7] = microsomal stability half-life, minutes
[8] = recombinant human GALK1, Kinase-Glo Plus ATP depletion, bracketed figure in the cell, e.g. (−1.2), is not defined in the text shown, read-out: hGALK
[9] = recombinant mouse GALK1, Kinase-Glo Plus ATP depletion, bracketed figure in the cell, e.g. (−1.2), is not defined in the text shown, read-out: mGALK

Sequence of recombinant human GALK1 (P51570 whole entry): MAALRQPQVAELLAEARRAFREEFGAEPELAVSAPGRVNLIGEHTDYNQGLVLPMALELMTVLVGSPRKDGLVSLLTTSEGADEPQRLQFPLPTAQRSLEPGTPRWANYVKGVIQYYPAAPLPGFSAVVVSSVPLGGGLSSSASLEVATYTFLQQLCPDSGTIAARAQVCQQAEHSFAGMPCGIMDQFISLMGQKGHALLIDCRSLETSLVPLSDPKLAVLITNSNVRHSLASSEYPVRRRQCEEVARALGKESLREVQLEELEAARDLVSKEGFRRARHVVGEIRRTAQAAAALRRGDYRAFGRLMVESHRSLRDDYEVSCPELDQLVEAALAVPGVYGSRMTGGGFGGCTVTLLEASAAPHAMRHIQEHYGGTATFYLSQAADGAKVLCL

| Compound | Sol. [1] [µg/mL] | Metab. Stabil. (m) ([2]; microsomal half-life) | Perm. (1 × 10^−6 cm/sec) (PAMPA permeability) | pIC50 (recombinant human GALK1; [3]) | pIC50 (recombinant human GALK1; [4]) | pIC50 (recombinant mouse GALK1; [5]) | pIC50 (recombinant mouse GALK1; [6]) | Sol. ([1]; aqueous kinetic solubility) [µg/mL] | Metab. Stabil. (m) [2, 7] [m] | Perm. (1 × 10^−6 cm/sec) (PAMPA permeability; PAMPA) | pIC50 (recombinant human GALK1; [8]) | pIC50 (recombinant mouse GALK1; [9]) | Metab. Stabil. (m) ([2]; microsomal stability half-life) | mGALK (μM) (recombinant mouse GALK1; recombinant mouse GALK1, Kinase-Glo Plus ATP depletion, bracketed figure in the cell, e.g. (−1.2), is not defined in the text shown) |
| --- | --- | --- | --- | --- | --- | --- | --- | --- | --- | --- | --- | --- | --- | --- |
| CC1=C(C(=O)Nc2cc(C(=O)O)ccn2)C(c2ccc(N3CCCC3)cc2Cl)N=C(Nc2nc3ccc(F)cc3o2)N1 (stereo not drawn) [Compound 57, 2-(4-(2-chloro-4-(pyrrolidin-1-yl)phenyl)-2-((6-fluorobenzo[d]oxazol-2-yl)amino)-6-methyl-1,4-dihydropyrimidine-5-carboxamido)isonicotinic acid] | >87 | >30 | <1 1 × 10^−6 cm/sec | 5.96 | 5.39 | 4.96 | 4.96 | – | – | – | – | – | – | – |
| O=C1CC(C(=O)NCCO)CC2=C1C(c1ccccc1Cl)N=C(Nc1nc3ccccc3o1)N2 (stereo not drawn) [Compound 279, 2-(benzo[d]oxazol-2-ylamino)-4-(2-chlorophenyl)-N-(2-hydroxyethyl)-5-oxo-1,4,5,6,7,8-hexahydroquinazoline-7-carboxamide] | – | – | – | – | – | – | – | 28.98 | >30 | <2 1 × 10^−6 cm/sec | 5.31 | 5.26 | – | – |
| CC1=C(C(=O)Nc2ccc(C#N)cc2)C(c2ccccc2Cl)N=C(Nc2nc3ccccc3o2)N1 (stereo not drawn) [Compound 189, 2-(benzo[d]oxazol-2-ylamino)-4-(2-chlorophenyl)-N-(4-cyanophenyl)-6-methyl-1,4-dihydropyrimidine-5-carboxamide] | – | – | – | 4.96 | 4.96 | 4.86 | 4.86 | <1 | – | <18.7 1 × 10^−6 cm/sec | – | – | 25.33 | – |
| CC1=C(C(=O)NCc2cccc(C(=O)O)c2)C(c2ccccc2Cl)N=C(Nc2nc3ccccc3o2)N1 (stereo not drawn) [Compound 226, 3-((2-(benzo[d]oxazol-2-ylamino)-4-(2-chlorophenyl)-6-methyl-1,4-dihydropyrimidine-5-carboxamido)methyl)benzoic acid] | – | – | – | – | 5.11 | – | 4.71 | 60.6 | – | <1.3 1 × 10^−6 cm/sec | – | – | >30 | – |
| COC(=O)c1ccnc(NC(=O)C2=C(C)NC(Nc3nc4ccccc4o3)=N[C@H]2c2ccccc2Cl)c1 [Compound 206, (R)-methyl 2-(2-(benzo[d]oxazol-2-ylamino)-4-(2-chlorophenyl)-6-methyl-1,4-dihydropyrimidine-5-carboxamido)isonicotinate] | – | – | – | – | 5.46 | – | 5.16 | <1 | – | 306.7 1 × 10^−6 cm/sec | – | – | 19.99 | – |
| CC1=C(C(=O)Nc2ccc(CO)nc2)C(c2ccccc2Cl)N=C(Nc2nc3ccccc3o2)N1 (stereo not drawn) [Compound 165, 2-(benzo[d]oxazol-2-ylamino)-4-(2-chlorophenyl)-N-(6-(hydroxymethyl)pyridin-3-yl)-6-methyl-1,4-dihydropyrimidine-5-carboxamide] | – | – | – | – | 5.31 | – | 5.11 | <1 | – | 766.1 1 × 10^−6 cm/sec | – | – | >30 | – |
| CC1=C(C(=O)Nc2nnc(-c3cccnc3)s2)C(c2ccccc2Cl)N=C(Nc2nc3cc(F)ccc3o2)N1 (stereo not drawn) [Compound 97, 4-(2-chlorophenyl)-2-((5-fluorobenzo[d]oxazol-2-yl)amino)-6-methyl-N-(5-(pyridin-3-yl)-1,3,4-thiadiazol-2-yl)-1,4-dihydropyrimidine-5-carboxamide] | <1 | >30 | <1.5 1 × 10^−6 cm/sec | – | 5.26 | – | 4.71 | – | – | – | – | – | – | – |
| CC1=C(C(=O)Nc2cc(C(=O)O)ccn2)C(c2ccc(C#N)cc2Cl)N=C(Nc2nc3ccc(F)cc3o2)N1 (stereo not drawn) [Compound 66, 2-(4-(2-chloro-4-cyanophenyl)-2-((6-fluorobenzo[d]oxazol-2-yl)amino)-6-methyl-1,4-dihydropyrimidine-5-carboxamido)isonicotinic acid] | >81 | >30 | <1 1 × 10^−6 cm/sec | 6.21 | 6.21 | 5.41 | 5.41 | – | – | – | – | – | – | – |
| CC1=C(C(=O)NCc2cnn(C)c2C)C(c2ccc(C)cc2Cl)N=C(Nc2nc3ccc(F)cc3o2)N1 (stereo not drawn) [Compound 124] | – | – | – | 6.31 | 6.31 | 5.46 | 5.46 | <1 | – | 460.2 1 × 10^−6 cm/sec | – | – | 2.993 | – |
| CC1=C(C(=O)Nc2nncs2)C(c2c(Br)cnn2C)N=C(Nc2nc3ccccc3o2)N1 (stereo not drawn) [Compound 258, 2-(benzo[d]oxazol-2-ylamino)-4-(4-bromo-1-methyl-1H-pyrazol-5-yl)-6-methyl-N-(1,3,4-thiadiazol-2-yl)-1,4-dihydropyrimidine-5-carboxamide] | – | – | – | – | – | – | – | 38.7 | >30 | 198.3 1 × 10^−6 cm/sec | 4.66 | – | – | in- active |
| CC1=C(C(=O)Nc2cc(C(=O)O)ccn2)C(c2ccc(C)cc2Cl)N=C(Nc2nc3cnccc3o2)N1 (stereo not drawn) [Compound 106, 2-(4-(2-chloro-4-methylphenyl)-6-methyl-2-(oxazolo[4,5-c]pyridin-2-ylamino)-1,4-dihydropyrimidine-5-carboxamido)isonicotinic acid] | >51 | >30 | <1 1 × 10^−6 cm/sec | 6.07 | 6.07 | 5.16 | 5.16 | – | – | – | – | – | – | – |
| O/N=C1\CCCC2=C1C(c1ccccc1Cl)N=C(Nc1nc3ccccc3o1)N2 (stereo not drawn) [Compound 244, (E)-2-(benzo[d]oxazol-2-ylamino)-4-(2-chlorophenyl)-4,6,7,8-tetrahydroquinazolin-5(1H)-one oxime] | – | – | – | – | – | – | – | <1 | 5.48 | 244.29 1 × 10^−6 cm/sec | 4.76 | 4.96 | – | – |
| CC1=C(C(=O)Nc2nncs2)C2(CCSCC2)N=C(Nc2nc3ccccc3o2)N1 [Compound 271, 2-(benzo[d]oxazol-2-ylamino)-4-methyl-N-(1,3,4-thiadiazol-2-yl)-9-thia-1,3-diazaspiro[5.5]undeca-1,4-diene-5-carboxamide] | – | – | – | – | – | – | – | 3.5 | >30 | 417.5 1 × 10^−6 cm/sec | 5.06 | 4.61 | – | – |
| CC1=C(S(C)(=O)=O)C(c2ccccc2Cl)N=C(Nc2nc3ccccc3o2)N1 (stereo not drawn) [Compound 243, N-(4-(2-chlorophenyl)-6-methyl-5-(methylsulfonyl)-1,4-dihydropyrimidin-2-yl)benzo[d]oxazol-2-amine] | – | – | – | – | 4.86 | – | 4.71 | <1 | – | 42.78 1 × 10^−6 cm/sec | – | – | 9.37 | – |
| COC(=O)c1csc(NC(=O)C2=C(C)NC(Nc3nc4ccccc4o3)=NC2c2ccccc2Cl)n1 (stereo not drawn) [Compound 186, methyl 2-(2-(benzo[d]oxazol-2-ylamino)-4-(2-chlorophenyl)-6-methyl-1,4-dihydropyrimidine-5-carboxamido)thiazole-4-carboxylate] | – | – | – | 4.91 | 4.91 | 4.86 | 4.86 | <1 | – | 65.6 1 × 10^−6 cm/sec | – | – | >30 | – |
